Drawing on patent US20230061736A1, “GPR119 AGONISTS” (Kallyope, Inc., priority 2019, published 2023), this text covers Emax and EC50 for 20 molecules.

pEC50: −log10 of the molar value.

In this assay the target is T1, human GPR119 (hGPR119) (Homo sapiens, UniProt Q8TDV5).
T1 construct: expressed in transfected cells
T1 sequence (Q8TDV5 1-335): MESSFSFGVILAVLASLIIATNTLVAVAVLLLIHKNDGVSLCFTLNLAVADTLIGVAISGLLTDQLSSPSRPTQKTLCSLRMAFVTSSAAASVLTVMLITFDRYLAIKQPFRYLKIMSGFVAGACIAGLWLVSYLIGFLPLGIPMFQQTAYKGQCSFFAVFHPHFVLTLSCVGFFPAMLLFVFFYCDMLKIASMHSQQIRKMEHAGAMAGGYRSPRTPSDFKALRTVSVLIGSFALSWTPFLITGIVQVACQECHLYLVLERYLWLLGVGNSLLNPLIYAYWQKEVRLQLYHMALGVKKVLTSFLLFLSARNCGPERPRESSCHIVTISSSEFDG
Briefly: cAMP accumulation assay (cAMP Gs dynamic HTRF kit). As to conditions: CHO-K1 cells stably expressing hGPR119, 4-parameter fit; for Emax: 1 h, % activity normalized to Max/Min controls; for pEC50: cAMP accumulation. It counts as cell-based. A digest of the protocol: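 Read-out is HTRF 665/620 nm ratio after 1 h detection at ambient temperature, converted to % activity against positive and negative controls, EC50 and Max activity by 4-parameter fit. Compounds were titrated onto ~10,000 thawed hGPR119-CHO-K1 cells/well for 60 min at 37° C/5% CO2.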
A general note: cAMP levels reflect the balance of adenylyl cyclase and phosphodiesterase activity.

One may read the Emax as the maximal effect, on the per cent scale that the assay sets. As usually defined, the pEC50 is the EC50 on a negative log10 scale, so that one unit is a factor of ten. Read a low pEC50 as a large EC50. Take `O=C(Cc1ccc(OCCCC2CCN(c3ncc(Cl)cn3)CC2)cc1F)N1CC(CCNCC(CO)CO)C1` [Example 57, 2-(4-(3-(1-(5-chloropyrimidin-2-yl)piperidin-4-yl)propoxy)-2-fluorophenyl)-1-(3-(2-((3-hydroxy-2-(hydroxymethyl)propyl)amino)ethyl)azetidin-1-yl)ethan-1-one]: the maximal effect (Emax) is 100 to 130% and the negative logarithm of the EC50 (pEC50) is ≥ 7.00.

With `CC[N+](CC)(CC)CCCCCNC(=O)Cc1ccc(OCCCC2CCN(c3ncc(Cl)cn3)CC2)cc1F` [Example 2, 5-[[2-[4-[3-[1-(5-chloropyrimidin-2-yl)-4-piperidyl]propoxy]-2-fluoro-phenyl]acetyl]amino]pentyl-triethyl-ammonium], the maximum response (Emax) was ≥ 130% and the pEC50 was 6.00 to 7.00.

Take `O=C(NCCO[C@H]1O[C@H](CO)[C@@H](O)[C@H](O)[C@@H]1O)C1CN(C(=O)Cc2ccc(OCCCC3CCN(c4ncc(Cl)cn4)CC3)cc2F)C1` (racemic) [Example 31, 1-[2-[4-[3-[1-(5-chloropyrimidin-2-yl)-4-piperidyl]propoxy]-2-fluoro-phenyl]acetyl]-N-[2-[rac-(2S,3S,4S,5S,6R)-3,4,5-trihydroxy-6-(hydroxymethyl)tetrahydropyran-2-yl]oxyethyl]azetidine-3-carboxamide]: the Emax is 100 to 130% and the pEC50 was 6.00 to 7.00.

`CCc1cnc(N2CCC(CCCOc3ccc(CC(=O)NCCC[N+](C)(C)C)c(F)c3)CC2)nc1` [Example 15, 3-[[2-[4-[3-[1-(5-ethylpyrimidin-2-yl)-4-piperidyl]propoxy]-2-fluoro-phenyl]acetyl]amino]propyl-trimethyl-ammonium] showed an Emax of 100 to 130% and a negative logarithm of the EC50 (pEC50) of 6.00 to 7.00.

As for `O=C(NCCS(=O)(=O)O)C1CN(C(=O)Cc2ccc(OCCCC3CCN(c4ncc(Cl)cn4)CC3)cc2F)C1` [Example 171, 2-[[1-[2-[4-[3-[1-(5-chloropyrimidin-2-yl)-4-piperidyl]propoxy]-2-fluoro-phenyl]acetyl]azetidine-3-carbonyl]amino]ethanesulfonic acid], the maximal response (Emax) lay in the range of 100 to 130% and the negative logarithm of the EC50 (pEC50) was 6.00 to 7.00.

Regarding `O=C(Cc1ccc(OCCCC2CCN(c3ncc(Cl)cn3)CC2)cc1F)N1CCC(O)(CNC[C@H](O)[C@H](O)[C@H](O)CO)CC1` [Example 187, 2-[4-[3-[1-(5-chloropyrimidin-2-yl)-4-piperidyl]propoxy]-2-fluoro-phenyl]-1-[4-hydroxy-4-[[[(2S,3S,4R)-2,3,4,5-tetrahydroxypentyl]amino]methyl]-1-piperidyl]ethanone], the Emax is 100 to 130% and the negative-log EC50 (pEC50) is ≥ 7.00.

Turning to `O=C(Cc1c(F)cc(OCCCC2CCN(c3ncc(Cl)cn3)CC2)cc1F)N1CCC(O)(CNCC(CO)(CO)CO)C1` (stereo not drawn) [Example 188, 2-[4-[3-[1-(5-chloropyrimidin-2-yl)-4-piperidyl]propoxy]-2,6-difluoro-phenyl]-1-[3-hydroxy-3-[[[3-hydroxy-2,2-bis(hydroxymethyl)propyl]amino]methyl]pyrrolidin-1-yl]ethanone], the Emax lay in the range of 100 to 130% and the negative logarithm of the EC50 (pEC50) is ≥ 7.00.

`O=C(Cc1ccc(OCCCC2CCN(c3ncc(Cl)cn3)CC2)cc1F)N1CCC(O)(CNCC(CO)(CO)CO)C1` (stereo not drawn) [Example 180, 2-[4-[3-[1-(5-chloropyrimidin-2-yl)-4-piperidyl]propoxy]-2-fluoro-phenyl]-1-[3-hydroxy-3-[[[3-hydroxy-2,2-bis(hydroxymethyl)propyl]amino]methyl]pyrrolidin-1-yl]ethanone]: the Emax fell in the range of 100 to 130% and the pEC50 was ≥ 7.00.

On to `COCc1cnc(N2CCC([C@H]3C[C@H]3CCOc3ccc(CC(=O)N4CC(CNC[C@H](O)[C@@H](O)[C@H](O)[C@H](O)CO)C4)c(F)c3)CC2)nc1` (mixture of isomers) [Example 97, 2-[2-fluoro-4-[2-[rac-(1S,2R)-2-[1-[5-(methoxymethyl)pyrimidin-2-yl]-4-piperidyl]cyclopropyl]ethoxy]phenyl]-1-[3-[[[(2S,3R,4R,5R)-2,3,4,5,6-pentahydroxyhexyl]amino]methyl]azetidin-1-yl]ethanone], for which the Emax is 100 to 130% and the negative logarithm of the EC50 (pEC50) was 6.00 to 7.00.

With `O=C(Cc1ccc(OCCCC2CCN(c3ncc(Cl)cn3)CC2)cc1F)NC(CO)(CO)CO` [Example 5, 2-[4-[3-[1-(5-chloropyrimidin-2-yl)-4-piperidyl]propoxy]-2-fluoro-phenyl]-N-[2-hydroxy-1,1-bis(hydroxymethyl)ethyl]acetamide], the Emax lay in the range of 100 to 130% and the pEC50 was 6.00 to 7.00.

Consider `COCc1cnc(N2CCC(CCCOc3cc(F)c(CC(=O)N4CCC(O)(CNCC(CO)(CO)CO)C4)c(F)c3)CC2)nc1` (stereo not drawn) [Example 190, 2-[2,6-difluoro-4-[3-[1-[5-(methoxymethyl)pyrimidin-2-yl]-4-piperidyl]propoxy]phenyl]-1-[3-hydroxy-3-[[[3-hydroxy-2,2-bis(hydroxymethyl)propyl]amino]methyl]pyrrolidin-1-yl]ethanone], for which the Emax was in the range of 100 to 130% and the negative logarithm of the EC50 (pEC50) is ≥ 7.00.

`CC(C)OC(=O)N1CCC2(CC1)CC(CCOc1ccc(CC(=O)N3CC(CNC[C@H](O)[C@@H](O)[C@H](O)[C@H](O)CO)C3)c(F)c1)C2` [Example 118, isopropyl 2-[2-[3-fluoro-4-[2-oxo-2-[3-[[[(2S,3R,4R,5R)-2,3,4,5,6-pentahydroxyhexyl]amino]methyl]azetidin-1-yl]ethyl]phenoxy]ethyl]-7-azaspiro[3.5]nonane-7-carboxylate] showed a maximal effect (Emax) of 100 to 130% and a pEC50 of 6.00 to 7.00.

Take `COCc1cnc(N2CCC(CCCOc3cc(F)c(CC(=O)N4CC[C@@H](CNCC(CO)(CO)CO)C4)c(F)c3)CC2)nc1` [Example 160, 2-[2,6-difluoro-4-[3-[1-[5-(methoxymethyl)pyrimidin-2-yl]-4-piperidyl]propoxy]phenyl]-1-[(3S)-3-[[[3-hydroxy-2,2-bis(hydroxymethyl)propyl]amino]methyl]pyrrolidin-1-yl]ethanone]: the Emax is ≥ 130% and the negative-log EC50 (pEC50) was ≥ 7.00.

Consider `COCc1cnc(N2CCC([C@H]3C[C@H]3CCOc3ccc(CC(=O)N4CC[C@@H](CNCC(CO)(CO)CO)C4)c(F)c3)CC2)nc1` [Example 163, 2-[2-fluoro-4-[2-[(1S,2R)-2-[1-[5-(methoxymethyl)pyrimidin-2-yl]-4-piperidyl]cyclopropyl]ethoxy]phenyl]-1-[(3S)-3-[[[3-hydroxy-2,2-bis(hydroxymethyl)propyl]amino]methyl]pyrrolidin-1-yl]ethanone], for which the maximal effect (Emax) is 100 to 130% and the negative-log EC50 (pEC50) is ≥ 7.00.

For the molecule `CCCc1cnc(N2CCC(CCCOc3cc(F)c(CC(=O)N4CC(CNCC(O)(CO)CO)C4)c(F)c3)CC2)nc1` [Example 75, 2-(2,6-difluoro-4-(3-(1-(5-propylpyrimidin-2-yl)piperidin-4-yl)propoxy)phenyl)-1-(3-(((2,3-dihydroxy-2-(hydroxymethyl)propyl)amino)methyl)azetidin-1-yl)ethan-1-one], the maximal response (Emax) lay in the range of 100 to 130% and the negative-log EC50 (pEC50) is ≥ 7.00.

For the molecule `O=C(NCCCCS(=O)(=O)O)C1CN(C(=O)Cc2ccc(OCCCC3CCN(c4ncc(Cl)cn4)CC3)cc2F)C1` [Example 173, 4-[[1-[2-[4-[3-[1-(5-chloropyrimidin-2-yl)-4-piperidyl]propoxy]-2-fluoro-phenyl]acetyl]azetidine-3-carbonyl]amino] butane-1-sulfonic acid], the maximal effect (Emax) lay in the range of 100 to 130%.

As for `CCOc1cnc(N2CCC(CCCOc3cc(F)c(CC(=O)N4CC[C@H](C(=O)NC[C@H](O)[C@@H](O)[C@H](O)[C@H](O)CO)C4)c(F)c3)CC2)nc1` [Example 130, (3S)-1-[2-[4-[3-[1-(5-ethoxypyrimidin-2-yl)-4-piperidyl]propoxy]-2,6-difluoro-phenyl]acetyl]-N-[(2S,3R,4R,5R)-2,3,4,5,6-pentahydroxyhexyl]pyrrolidine-3-carboxamide], the Emax lay in the range of 100 to 130% and the pEC50 is ≥ 7.00.

Molecule `O=C(Cc1ccc(COCC2CC23CCN(c2ncc(Cl)cn2)CC3)cc1F)N1CC(CNC[C@H](O)[C@@H](O)[C@H](O)[C@H](O)CO)C1` (stereo partly drawn) [Example 111, 2-[4-[[6-(5-chloropyrimidin-2-yl)-6-azaspiro[2.5]octan-2-yl]methoxymethyl]-2-fluoro-phenyl]-1-[3-[[[(2S,3R,4R,5R)-2,3,4,5,6-pentahydroxyhexyl]amino]methyl]azetidin-1-yl]ethanone] had a maximal effect (Emax) of 50 to 100% and a pEC50 of 5.00 to 6.00.

In the case of `O=C(Cc1ccc(OCCCC2CCN(c3ncc(Cl)cn3)CC2)cc1F)N1CC(CNCCOCCOCCO)C1` [Example 51, 2-[4-[3-[1-(5-chloropyrimidin-2-yl)-4-piperidyl]propoxy]-2-fluoro-phenyl]-1-[3-[[2-[2-(2-hydroxyethoxy)ethoxy]ethylamino]methyl]azetidin-1-yl]ethanone], the maximal response (Emax) was 50 to 100% and the pEC50 is ≥ 7.00.

Take `COCc1cnc(N2CCC(CCCOc3cc(F)c(CC(=O)N4CC[C@@H](CNC[C@H](O)[C@@H](O)[C@H](O)[C@H](O)CO)C4)c(F)c3)CC2)nc1` [Example 135, 2-[2,6-difluoro-4-[3-[1-[5-(methoxymethyl)pyrimidin-2-yl]-4-piperidyl]propoxy]phenyl]-1-[(3S)-3-[[[(2S,3R,4R,5R)-2,3,4,5,6-pentahydroxyhexyl]amino]methyl]pyrrolidin-1-yl]ethanone]: the Emax was in the range of 100 to 130% and the pEC50 is ≥ 7.00.
